From US12692254B2, “Benzimidazole inhibitors of PAD enzymes” (BRISTOL-MYERS SQUIBB COMPANY, priority 2018, dated 2026) come the findings set out here.

The test deals with human PAD4 (hPAD4) (Homo sapiens, UniProt Q9UM07). The test is described as follows: RFMS human PAD4 functional assay (rapid-fire mass spectrum). It is filed as biochemical. To be noted: 5 nM hPAD4 enzyme, 250 μM BAEE, 50 μM Calcium; 30 min preincubation, 90 min reaction at 37° C. In short, it runs like this: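 PAD4 (10 nM) preincubated 30 min with compound (top final 50 μM), then BAEE substrate added in pH 7.5 HEPES buffer with DTT, 50 μM calcium, TPEN; 90 min at 37° C. After TCA quench, citrulline derivatized with phenyl glyoxal (4 mM final, 30 min, 37° C) and quantified by RapidFire MS against internal standard.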
Sequence of human PAD4 (hPAD4) (Q9UM07 whole entry): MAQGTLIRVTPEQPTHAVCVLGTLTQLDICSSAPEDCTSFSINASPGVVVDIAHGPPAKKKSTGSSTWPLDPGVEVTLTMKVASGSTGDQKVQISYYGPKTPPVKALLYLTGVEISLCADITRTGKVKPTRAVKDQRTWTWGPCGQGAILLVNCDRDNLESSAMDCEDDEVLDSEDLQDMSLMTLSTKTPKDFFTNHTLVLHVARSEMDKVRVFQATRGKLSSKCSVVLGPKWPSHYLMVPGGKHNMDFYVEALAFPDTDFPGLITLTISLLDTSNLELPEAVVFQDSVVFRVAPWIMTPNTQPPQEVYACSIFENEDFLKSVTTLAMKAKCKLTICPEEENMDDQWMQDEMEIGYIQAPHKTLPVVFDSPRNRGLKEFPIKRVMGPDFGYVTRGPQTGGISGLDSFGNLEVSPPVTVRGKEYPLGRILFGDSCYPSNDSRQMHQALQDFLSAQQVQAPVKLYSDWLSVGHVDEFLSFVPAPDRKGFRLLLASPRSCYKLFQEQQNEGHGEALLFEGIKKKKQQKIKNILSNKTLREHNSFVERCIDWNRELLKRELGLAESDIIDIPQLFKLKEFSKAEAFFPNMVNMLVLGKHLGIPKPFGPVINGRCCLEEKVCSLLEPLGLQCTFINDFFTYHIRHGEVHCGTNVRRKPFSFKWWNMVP

pIC50: −log10 of the molar value.

Broadly, the pIC50 is the IC50 on a negative log10 scale, so that one unit is a factor of ten. For the compound `COc1cc(C(=O)N2C[C@H]3CC[C@@H]2[C@@H]3N)cc2nc(-c3cc4cccnc4n3CC3CC3)n(C3CN(S(=O)(=O)c4ccccc4)C3)c12` [Example 329, (1R,4R,7R)-2-{1-[1-(benzenesulfonyl)azetidin-3-yl]-2-[1-(cyclopropylmethyl)-1H-pyrrolo[2,3-b]pyridin-2-yl]-7-methoxy-1H-1,3-benzodiazole-5-carbonyl}-2-azabicyclo[2.2.1]heptan-7-amine], the pIC50 is 6.79. Under `COc1cc(C(=O)N2CC3CCC2[C@@H]3N)cc2nc(-c3cc4ccccc4n3CC3CC3)n(CC3CN(C(=O)c4cncs4)C3)c12` (stereo partly drawn) [Example 448, (7R)-2-{2-[1-(cyclopropylmethyl)-1H-indol-2-yl]-7-methoxy-1-{[1-(1,3-thiazole-5-carbonyl)azetidin-3-yl]methyl}-1H-1,3-benzodiazole-5-carbonyl}-2-azabicyclo[2.2.1]heptan-7-amine] stands 7.36; under `COc1cc(C(=O)N2CC3CCC2[C@@H]3N)cc2nc(-c3cc4ccccc4n3CC3CC3)n(C[C@H]3CCN(C(=O)c4ccc(C#N)cc4)C3)c12` (stereo partly drawn) [Example 226, 4-[(3S)-3-({5-[(1R,4R,7R)-7-aminobicyclo[2.2.1]heptane-2-carbonyl]-2-[1-(cyc1opropylmethyl)-1H-indo1-2-yl]-7-methoxy-1H-1,3-benzodiazol-1-yl}methyl)pyrrolidine-1-carbonyl]benzonitrile], 7.43. With `COc1cc(C(=O)N2C[C@H]3CC[C@@H]2[C@@H]3N)cc2nc(-c3cc4cccnc4n3CC3CC3)n(CC3CN(c4ccnc(C)c4)C3)c12` [Example 51, (1R,4R,7R)-2-{2-[1-(cyclopropylmethyl)-1H-pyrrolo[2,3-b]pyridin-2-yl]-7-methoxy-1-{[1-(2-methylpyridin-4-yl)azetidin-3-yl]methyl}-1H-1,3-benzodiazole-5-carbonyl}-2-azabicyclo[2.2.1]heptan-7-amine], the pIC50 is 6.82. Turning to `COc1cc(C(=O)N2C[C@H](N)C[C@@H](F)C2)cc2nc(-c3cc4cccnc4n3CC3CC3)n(Cc3cnn(-c4ccc(F)cn4)c3)c12` [Example 345, (3R,5R)-1-{2-[1-(cyclopropylmethyl)-1H-pyrrolo[2,3-b]pyridin-2-yl]-1-{[1-(5-fluoropyridin-2-yl)-1H-pyrazol-4-yl]methyl}-7-methoxy-1H-1,3-benzodiazole-5-carbonyl}-5-fluoropiperidin-3-amine], the pIC50 is 7.31. For the compound `COc1cc(C(=O)N2CCC[C@@H](N)C2)cc2nc(-c3cc4cccnc4n3CC3CC3)n([C@H]3C[C@H](N)C3)c12` [Example 300, (3R)-1-{2-[1-(cyclopropylmethyl)-1H-pyrrolo[2,3-b]pyridin-2-yl]-7-methoxy-1-[(1r,3r)-3-aminocyclobutyl]-1H-1,3-benzodiazole-5-carbonyl}piperidin-3-amine], the pIC50 is 6.04.

In the case of `COc1cc(C(=O)N2C[C@H]3CC[C@@H]2[C@@H]3N)cc2nc(-c3cc4cccnc4n3CC3CC3)n(C3CN(C(=O)c4cnc(C#N)nc4)C3)c12` [Example 102, 5-(3-{5-[(1R,4R,7R)-7-amino-2-azabicyclo[2.2.1]heptane-2-carbonyl]-2-[1-(cyclopropylmethyl)-1H-pyrrolo[2,3-b]pyridin-2-yl]-7-methoxy-1H-1,3-benzodiazol-1-yl}azetidine-1-carbonyl)pyrimidine-2-carbonitrile], the pIC50 is 6.85.

With `COc1cc(C(=O)N2C[C@H]3CC[C@@H]2[C@@H]3N)cc2nc(-c3cc4ccccc4n3CC3CC3)n(CC3CN(c4ccnc(C)n4)C3)c12` [Example 66, (1R,4R,7R)-2-{2-[1-(cyclopropylmethyl)-1H-indol-2-yl]-7-methoxy-1-{[1-(2-methylpyrimidin-4-yl)azetidin-3-yl]methyl}-1H-1,3-benzodiazole-5-carbonyl}-2-azabicyclo[2.2.1]heptan-7-amine], the pIC50 is 7.41. Under `COc1cc(C(=O)N2CC3CCC2[C@@H]3N)cc2nc(-c3cc4cccnc4n3CC3CC3)n(CC3CC(C(N)=O)C3)c12` (stereo partly drawn) [Example 475, 3-({5-[(7R)-7-amino-2-azabicyclo[2.2.1]heptane-2-carbonyl]-2-[1-(cyclopropylmethyl)-1H-pyrrolo[2,3-b]pyridin-2-yl]-7-methoxy-1H-1,3-benzodiazol-1-yl}methyl)cyclobutane-1-carboxamide] stands 6.74. In the case of `COc1cc(C(=O)N2CC3CCC2[C@@H]3N)cc2nc(-c3cc4cccnc4n3CC3CC3)n([C@H]3C[C@H](NS(C)(=O)=O)C3)c12` (stereo partly drawn) [Example 298, N-[(1r,3r)-3-{5-[(1R,4R,7R)-7-amino-2-azabicyclo[2.2.1]heptane-2-carbonyl]-2-[1-(cyclopropylmethyl)-1H-pyrrolo[2,3-b]pyridin-2-yl]-7-methoxy-1H-1,3-benzodiazol-1-yl}cyclobutyl]methanesulfonamide], the pIC50 was 6.48. For `COc1cc(C(=O)N2CC3CCC2[C@@H]3N)cc2nc(-c3cc4cccnc4n3CC3CC3)n(CC3CCN(c4ncccn4)CC3)c12` (stereo partly drawn) [Example 220, (1R,4R,7R)-2-{2-[1-(cyclopropylmethyl)-1H-pyrrolo[2,3-b]pyridin-2-yl]-7-methoxy-1-{[1-(pyrimidin-2-yl)piperidin-4-yl]methyl)-1H-1,3-benzodiazole-5-carbonyl}-2-azabicyc1o[2.2.1]heptan-7-amine], the pIC50 was 7.14. Regarding `COc1cc(C(=O)N2CC3CCC2[C@@H]3N)cc2nc(-c3cc4ccccc4n3CC3CC3)n(CC3CN(C(=O)c4ccc(C(F)(F)F)cc4)C3)c12` (stereo partly drawn) [Example 420, (7R)-2-{2-[1-(cyclopropylmethyl)-1H-indol-2-yl]-7-methoxy-1-({1-[4-(trifluoromethyl)benzoyl]aze-tidin-3-yl}methyl)-1H-1,3-benzodiazole-5-carbonyl}-2-azabicyclo[2.2.1]heptan-7-amine], the pIC50 was 7.70.

As to `COc1cc(C(=O)N2C[C@H]3CC[C@@H]2[C@@H]3N)cc2nc(-c3cc4cccnc4n3CC3CC3)n(CC3CN(c4cc(C#N)cnc4C#N)C3)c12` [Example 12, 3-[3-({5-[(1R,4R,7R)-7-amino-2-azabicyclo[2.2.1]heptane-2-carbonyl]-2-[1-(cyclopropylmethyl)-1H-pyrrolo[2,3-b]pyridin-2-yl]-7-methoxy-1H-1,3-benzodiazol-1-yl}methyl)azetidin-1-yl]pyridine-2,5-dicarbonitrile], the pIC50 is 7.42. In the case of `COc1cc(C(=O)N2CC3CCC2[C@@H]3N)cc2nc(-c3cc4ccccc4n3CC3CC3)n(Cc3cnn(-c4ccnc(N)c4)c3)c12` (stereo partly drawn) [Example 361, (7R)-2-(1-{[1-(2-aminopyridin-4-yl)-1H-pyrazol-4-yl]methyl}-2-[1-(cyclopropylmethyl)-1H-indol-2-yl]-7-methoxy-1H-1,3-benzodiazole-5-carbonyl)-2-azabicyclo[2.2.1]heptan-7-amine], the pIC50 was 7.60. `Cn1cc(Cn2c(-c3cc4cccnc4n3CC3CC3)nc3cc(C(=O)N4CC5CCC4[C@@H]5N)cc(Cl)c32)cn1` (stereo partly drawn) [Example 493, (7R)-2-{7-chloro-2-[1-(cyclopropylmethyl)-1H-pyrrolo[2,3-b]pyridin-2-yl]-1-[(1-methyl-1H-pyrazol-4-yl)methyl]-1H-1,3-benzodiazole-5-carbonyl}-2-azabicyclo[2.2.1]heptan-7-amine]: the pIC50 is 7.08. In the case of `COc1cc(C(=O)N2C[C@H]3CC[C@@H]2[C@@H]3N)cc2nc(-c3cc4ccccc4n3CC3CC3)n(CC3CN(C(=O)c4cccn4C)C3)c12` [Example 148, (1R,4R,7R)-2-{2-[1-(cyclopropylmethyl)-1H-indol-2-yl]-7-methoxy-1-{[1-(1-methyl-1H-pyrrole-2-carbonyl)azetidin-3-yl]methyl}-1H-1,3-benzodiazole-5-carbonyl}-2-azabicyclo[2.2.1]heptan-7-amine], the pIC50 was 7.72. For the compound `COc1cc(C(=O)N2CC3CCC2[C@@H]3N)cc2nc(-c3cc4ccccc4n3CC3CC3)n(CC3CN(C(=O)c4ccnc(C#N)c4)C3)c12` (stereo partly drawn) [Example 451, 4-[3-({5-[(7R)-7-amino-2-azabicyclo[2.2.1]heptane-2-carbonyl]-2-[1-(cyclopropylmethyl)-1H-indol-2-yl]-7-methoxy-1H-1,3-benzodiazol-1-yl}methyl)azetidine-1-carbonyl]pyridine-2-carbonitrile], the pIC50 was 7.33. `COc1cc(C(=O)N2CC3CCC2[C@@H]3N)cc2nc(-c3cc4ccccc4n3CC3CC3)n(C[C@H]3CCN(c4ccnc(C#N)n4)C3)c12` (stereo partly drawn) [Example 223, 4-[(3S)-3-({5-[(1R,4R,7R)-7-amino-2-azabicyclo[2.2.1]heptane-2-carbonyl]-2-[1-(cyc1opropylmethyl)-1H-indo1-2-yl]-7-methoxy-1H-1,3-benzodiazo1-1-yl}methyl)pyrrolidin-1-yl]pyrimidine-2-carbonitrile]: the pIC50 is 7.74. Take `COc1cc(C(=O)N2C[C@H]3CC[C@@H]2[C@@H]3N)cc2nc(-c3cc4cccnc4n3CC3CC3)n(C[C@@H]3CCN(c4ccnc(C)n4)C3)c12` [Example 216, (1R,4R,7R)-2-{2-[1-(cyclopropylmethyl)-1H-pyrrolo[2,3-b]pyridin-2-yl]-7-methoxy-1-{[(3R)-1-(2-methylpyrimidin-4-yl)pyrrolidin-3-yl]methyl}-1H-1,3-benzodiazole-5-carbonyl}-2-azabicyclo[2.2.1]heptan-7-amine]: the pIC50 was 6.82. With `COc1cc(C(=O)N2C[C@H](N)C[C@@H](F)C2)cc2nc(-c3cc4cccnc4n3CC3CC3)n(Cc3cnn(-c4cccc(C)n4)c3)c12` [Example 363, (3R,5R)-1-{2-[1-(cyclopropylmethyl)-1H-pyrrolo[2,3-b]pyridin-2-yl]-7-methoxy-1-{[1-(6-methylpyridin-2-yl)-1H-pyrazol-4-yl]methyl}-1H-1,3-benzodiazole-5-carbonyl}-5-fluoropiperidin-3-amine], the pIC50 was 7.60.
